We go through twelve molecules from US8829195B2, “Compounds and compositions for inhibiting the activity of ABL1, ABL2 and BCR-ABL1” (Novartis AG, priority 2012, dated 2014).

The subject of data set [1] is KCL-22 xenograft. Put plainly: In vivo efficacy in KCL-22 xenograft model, dual agent treatment. Also on record: species or system mouse. The protocol: In Vivo Efficacy in KCL-22 Xenograft Model—Dual Agent Treatment 6-8 week old female nude mice purchased from Harlan (Indianapolis Ind.) were implanted subcutaneously with 2×10^6 KCL-22 cells in 50% matrigel (BD Biosciences, #354234) in the right dorsal axillary region. […] Compounds of the invention in a phosphate-buffered saline solution were prepared weekly and dosed by oral gavage at 30 mg/kg twice daily, and Nilotinib solution was dosed at 75 mg/kg twice daily. Animals received either single agent alone or combination of both simultaneously. Tumor volume was determined by twice weekly digital calipering and calculated as Length×Width^2/2.

Data set [2] relates to KCL-22 xenograft. Put plainly: In vivo efficacy in KCL-22 xenograft model, single agent treatment. Also on record: species or system mouse. As for the experimental part:
In Vivo Efficacy in KCL-22 Xenograft Model—Single Agent Treatment Compounds of the invention were dosed orally in a mouse KCL-22 xenograft model for 7 days. 6-8 week old female nude mice purchased from Harlan (Indianapolis Ind.) were implanted subcutaneously with 5×10^6 KCL-22 cells in 50% matrigel (BD Biosciences, #354234) in the right dorsal axillary region. […] Compounds of the invention in phosphate buffered saline were prepared weekly and dosed by oral gavage at 3-30 mg/kg twice daily (n=6 mice per dose level). Tumor volume was determined by twice weekly digital calipering and calculated as Length×Width^2/2.

A short description of data set [3]: Estimation of human PK parameters and efficacious dose from in vivo PK. To be noted: estimated from in vivo PK. From the text:
In vivo PK parameters can be utilized for the estimation of human PK parameters. Applying various methods known in the art for prediction of human PK, the predicted human clearance can be estimated.

Data set [4] deals with T1, Ba/F3-BCR-ABL1-WT cells (Homo sapiens, UniProt P00519).
T1 construct: fused on or other part: P11274 (Breakpoint cluster region protein)
Put plainly: Ba/F3-BCR-ABL1-WT cell proliferation assay. The format is cell-based, murine. The note with it: 48 hours; read-out: Ba/F3-BCR-ABL1-WT IC50.
Description: To generate Ba/F3 cells that depend on BCR-ABL1 expression for growth and survival, Ba/F3 cells were engineered to express BCR-ABL1 using retroviral transduction with a MSCV based retroviral vector containing a p210 BCR-ABLlexpression cassette. […] These cells are referred to as Ba/F3-BCR-ABL-WT.
Ba/F3-WT cells were maintained in RPMI1640 media with L-glutamine, HEPES (Lonza), 10% FBS (Gibco) and 5 ng/ml IL-3 (Calbiochem). Ba/F3-BCR-ABL1-WT cells and Ba/F3-BCR-ABL1-T315I cells were manitained in RPMI1640 media with L-glutamine, HEPES (Lonza) and 10% FBS (Gibco).
For each cell line, the cell density was adjusted to 50 000 cells/mL and 50 μL (2500 cells) added per well of a 384-well assay plate.
Test compounds were resuspended in DMSO at a concentration of 10 mM. A serial three-fold dilution of each compound with DMSO was performed in 384-well plates using the Janus Liquid Dispenser (PerkinElmer). Compound was delivered to the assay plates containing 2500 cells in a 50 μL volume via Acoustic delivery from an ATS-100 (EDC).
Cells were incubated at 37° C. in a humidified environment with 5% carbon dioxide for 48 hours. Britelite plus solution (Perkin Elmer) was prepared according to the manufacturer's instructions and 25 μL added to each well of the assay plate. […] The degree of luminescence correlates with the number of cells in each well. The effect of each inhibitor concentration can therefore be calculated and IC50 values generated.

Data set [5] concerns the target T2, ABL1 (64-515) (Homo sapiens, UniProt P00519).
T2 construct: 3.5 nM ABL (ABL(64-515), produced in-house from E. coli); His6 followed by a PreScission protease cleavage site (N, cleaved yes); made in house; host or cells: E. coli (BL21 (DE3) according to b733)
Put plainly: Caliper ABL1 (64-515) microfluidic mobility shift assay. The format is biochemical. To be noted: Table of Biochemical Data.
Description: All assays were performed in 384-well microtiter plates. Each assay plate contained 8-point serial dilutions for 40 test compounds, as well as four 8-point serial dilutions of staurosporine as a reference compound, plus 16 high and 16 low controls. Liquid handling and incubation steps were done on a Thermo CatX workstation equipped with Innovadyne Nanodrop Express. Between pipetting steps, tips were cleaned in wash cycles using wash buffer.
The assay plates were prepared by addition of 50 mL per well of compound solution in 90% DMSO. […] Plates with terminated kinase reactions were transferred to the Caliper LC3000 workstations for reading. Phosphorylated and unphosphorylated peptides were separated using the Caliper microfluidic mobility shift technology. Briefly, samples from terminated kinase reactions were applied to the chip. Analytes are transported through the chip by constant buffer flow and the migration of the substrate peptide is monitored by the fluorescence signal of its label. Phosphorylated peptide (product) and unphosphorylated peptide (substrate) are separated in an electric field by their charge/mass ratio. Kinase activities were calculated from the amounts of formed phospho-peptide. IC50 values were determined from percent inhibition values at different compound concentrations by non-linear regression analysis.
Preparation of compound dilutions: Test compounds were dissolved in DMSO (10 mM) and transferred into 1.4 mL flat bottom or V-shaped Matrix tubes carrying a unique 2D matrix. The stock solutions were stored at +2° C. if not used immediately. For the test procedure the vials were defrosted and identified by a scanner whereby a working sheet was generated that guided the subsequent working steps.
Compound dilutions were made in 96-well plates. This format enabled the assay of maximally 40 individual test compounds at 8 concentrations (single points) including 4 reference compounds. The dilution protocol included the production of “pre-dilution plates”, “master plates” and “assay plates”.
Pre-dilution plates: Polypropylene 96-well plates were used as pre-dilution plates. […] All dilution steps were done on a HamiltonSTAR robot.
These plates were used directly for the assay which was performed in a total volume of 9.05 μL.

Data set [6] deals with T2, ABL1 (64-515). The experiment in a line: Radio ABL1 (64-515) radiometric filter-binding assay. It is filed as biochemical.
Description: Expression and purification of protein kinase—Expression and purification of human ABL was performed using standard expression purification procedures. […] The His-ABL was expressed in E. coli BL21 (DE3) and the ABL proteins were isolated by Ni-affinity on a Ni-NTA column (Qiagen). The His-tag was removed by PreScission protease (GE Healthcare) and the non-phosphoprylated ABL further purified on a Mono Q HR 10/10 (GE Healthcare, mono-phosphorylated ABL is about 10-20% of total ABL protein) and HiLoad 16/60 Superdex 200 size exclusion column (GE Healthcare).
For determination of ABL kinase activity, the radiometric filter-binding assay was used. […] 10 μL of enzyme (ranging between 5 nM to 20 nM) was added to initiate the reaction. Pre-incubation of enzyme with compounds (when stated) was performed by exposing the enzyme to compounds prior to addition of the substrate mixture (ATP and/or peptide substrate). […] Filter-plates were washed 3× with 0.5% H3PO4, followed by addition of 30 μL scintillation cocktail (Microscint, Perkin Elmer) per well and then analysed in a TopCount NXT scintillation counter (Perkin Elmer). Results were expressed as IC50 values.
Data set [7] concerns the target T3, Ba/F3-BCR-ABL1-T315I cells (Homo sapiens, UniProt P00519, T315I, cells depend on it).
T3 construct: A similar approach was used to generate Ba/F3 cells that depend on a BCR-ABL1 variant in which threonine 315 is replaced with isoleucine; fused on or other part: P11274 (Breakpoint cluster region protein)
The experiment in a line: Ba/F3-BCR-ABL1-T315I cell proliferation assay. It is filed as cell-based, murine. The note with it: 48 hours; read-out: Ba/F3-BCR-ABL1-T315I IC50.

Consider `O=C(Nc1ccc(OC(F)(F)Cl)cc1)c1cnc(N2CC[C@@H](O)C2)c(-c2ccn[nH]2)c1` [Example 9, (R)—N-(4-(Chlorodifluoromethoxy)phenyl)-6-(3-hydroxypyrrolidin-1-yl)-5-(1H-pyrazol-5-yl)nicotinamide], for which, in data set [1] (30 mg/kg BID after resistance to 75 mg/kg Nilotinib BID), the “response of nilotinib resistant tumors (FIG. 3)” value is “regression of the tumors”. In addition, the “tumor growth inhibition compared to vehicle-treated mice” value in data set [2] (3 mg/kg twice daily, oral, 7 days) stood at 45%. The tumor regression in data set [2] (7.5 mg/kg twice daily, oral, 7 days) is on record as 56%; in data set [2] (15 mg/kg twice daily, oral, 7 days), 88%; in data set [2] (30 mg/kg twice daily, oral, 7 days), 92%. In addition, the “antitumor activity (FIG. 2)” value in data set [2] (daily treatment, subcutaneous KCL-22 xenografts) is recorded as “Dose-dependent antitumor activity”. Also, the predicted human clearance in data set [3] is on record as 3 mL/min/kg. Also, the Vd in data set [3] (human, read-out: volume of distribution (human, estimated)) was 1 L/kg.

As usually defined, the IC50 is the concentration at which inhibition is half-maximal. Consider `O=C(Nc1ccc(SC(F)(F)Cl)cc1)c1cnc(N2CC[C@@H](O)C2)c(-c2ccn[nH]2)c1` [Example 18, (R)—N-(4-((Chlorodifluoromethyl)thio)phenyl)-6-(3-hydroxypyrrolidin-1-yl)-5-(1H-pyrazol-5-yl)nicotinamide], for which the GI50 in data set [4] stood at 1.5 nM; in data set [7] it was 32 nM. Also, the IC50 stood at 0.2 nM in data set [5] and 2 nM in data set [6].

For `O=C(Nc1ccc(OC(F)(F)C(F)(F)F)cc1)c1cnc(N2CC[C@@H](O)C2)c(-c2ccn[nH]2)c1` [Example 19, (R)-6-(3-Hydroxypyrrolidin-1-yl)-N-(4-(perfluoroethoxy)phenyl)-5-(1H-pyrazol-5-yl)nicotinamide], the results for the GI50 in data set [4] and in data set [7] were 13.5 nM and 236 nM, respectively. The IC50 in data set [5] was 1.8 nM; in data set [6], 5 nM.

On to `NC[C@@H]1CCN(c2ncc(C(=O)Nc3ccc(OC(F)(F)Cl)cc3)cc2-c2ccn[nH]2)C1` [Example 21, (S)-6-(3-(Aminomethyl)pyrrolidin-1-yl)-N-(4-(chlorodifluoromethoxy)phenyl)-5-(1H-pyrazol-5-yl)nicotinamide], for which the figures for the GI50 in data set [4] and in data set [7] were 4 nM and 149 nM, respectively. The IC50 worked out at 1.3 nM in data set [5] and 1 nM in data set [6].

For the molecule `Cc1cc(-c2cc(C(=O)Nc3ccc(OC(F)(F)Cl)cc3)cnc2N2CC[C@@H](O)C2)[nH]n1` [Example 23, (R)—N-(4-(Chlorodifluoromethoxy)phenyl)-6-(3-hydroxypyrrolidin-1-yl)-5-(3-methyl-1H-pyrazol-5-yl)nicotinamide], the GI50 is 1.7 nM in data set [4] and 42 nM in data set [7]. The results for the IC50 in data set [5] and in data set [6] were 0.5 nM and 7 nM, respectively.

For the molecule `O=C(Nc1ccc(OC(F)(F)Cl)cc1)c1ccc(N2CC[C@@H](O)C2)c(-c2[nH]ncc2F)c1` [Example 24, (R)—N-(4-(Chlorodifluoromethoxy)phenyl)-3-(4-fluoro-1H-pyrazol-5-yl)-4-(3-hydroxypyrrolidin-1-yl)benzamide], the values for the GI50 in data set [4] and in data set [7] were 1.1 nM and 22 nM, respectively. For the same molecule, the values for the concentration for half-maximal inhibition (IC50) in data set [5] and in data set [6] were 0.4 nM and 5 nM, respectively.

`O=C(Nc1ccc(OC(F)(F)Cl)cc1)c1cnc(N2CC[C@@H](O)C2)c(-c2cc(C(F)(F)F)n[nH]2)c1` [Example 26, (R)—N-(4-(Chlorodifluoromethoxy)phenyl)-6-(3-hydroxypyrrolidin-1-yl)-5-(3-(trifluoromethyl)-1H-pyrazol-5-yl)nicotinamide]: the GI50 in data set [4] was determined as 9 nM; in data set [7], 227 nM. In addition, the IC50 is 10.4 nM in data set [5] and 12 nM in data set [6].

As to `Cn1ccc(-c2cc(C(=O)Nc3ccc(OC(F)(F)Cl)cc3)cnc2N2CC[C@@H](O)C2)n1` [Example 28, (R)—N-(4-(Chlorodifluoromethoxy)phenyl)-6-(3-hydroxypyrrolidin-1-yl)-5-(1-methyl-1H-pyrazol-3-yl)nicotinamide], the GI50 in data set [4] was determined as 7.5 nM; in data set [7], 150 nM. For the same molecule, the IC50 in data set [5] is 1.9 nM; in data set [6], 2.8 nM.

In the case of `CC(F)(F)Oc1ccc(NC(=O)c2cnc(N3CC[C@@H](O)C3)c(-c3ccn[nH]3)c2)cc1` [Example 30, (R)—N-(4-(1,1-Difluoroethoxy)phenyl)-6-(3-hydroxypyrrolidin-1-yl)-5-(1H-pyrazol-5-yl)nicotinamide], the GI50 in data set [4] worked out at 31.8 nM; in data set [7], 715 nM. Also, the results for the IC50 in data set [5] and in data set [6] were 4.3 nM and 0.4 nM, respectively.

Turning to `O=C(Nc1ccc(C(F)(F)C(F)(F)Cl)cc1)c1cnc(N2CC[C@@H](O)C2)c(-c2ccn[nH]2)c1` [Example 31, (R)—N-(4-(2-Chloro-1,1,2,2-tetrafluoroethyl)phenyl)-6-(3-hydroxypyrrolidin-1-yl)-5-(1H-pyrazol-5-yl)nicotinamide], the GI50 in data set [4] amounted to 4.1 nM; in data set [7], 133 nM. Further, the IC50 in data set [5] turned out to be 2.5 nM; in data set [6], 1 nM.

For `Cc1cn[nH]c1-c1cc(C(=O)Nc2ccc(OC(F)(F)Cl)cc2)cnc1N1CC[C@@H](O)C1` [Example 33, (R)—N-(4-(Chlorodifluoromethoxy)phenyl)-6-(3-hydroxypyrrolidin-1-yl)-5-(4-methyl-1H-pyrazol-5-yl)nicotinamide], the GI50 in data set [4] was determined as 1.5 nM; in data set [7] it was 32 nM. In addition, the figures for the IC50 in data set [5] and in data set [6] were 0.6 nM and 6 nM, respectively.

As for `Cc1cn(-c2cc(NC(=O)c3ccc(C)c(Nc4nccc(-c5cccnc5)n4)c3)cc(C(F)(F)F)c2)cn1` [nilotinib], the tumor regression in data set [1] (nilotinib alone 75 mg/kg twice daily, after 4 week daily treatment) was > 84%; in data set [2] (75 mg/kg twice daily, positive control) it was 82%. Also, in data set [1] (nilotinib alone, after the 4 week response, most tumors), the “tumor volume on relapse” value was > 500 mm^3.
